Measured values as given in ChEMBL document CHEMBL3507680, “University of Dundee, Gates Library screen for HepG2 cell viability”.

Test: Human HepG2 cell viability assay in 384 well format
Format: toxicity, cell-based
Parameters: dose 125 nL, time 70.5 hour; cytotoxicity at 70.5 h: concentration not given beside the values
Conditions: HepG2 cells, read-out: Inhibition

Row | Structure (SMILES) | cytotoxicity at 70.5 h [%]
1 | Cc1ccc(F)cc1NC(=O)C1CCCN1C(=O)C(C)C (stereo unspecified) | -5.39
2 | CN(C)c1nccc(C2CN(c3ccccc3)CCO2)n1 (stereo unspecified) | -4.49
3 | COC(=O)c1ccc(Cl)c(NS(=O)(=O)c2cnn(C)c2)c1 | 10.2
4 | O[C@H]1CN(CCCOc2ccccc2F)CC[C@@]12CCCO2 | -2.73
5 | CNC(=O)c1ccc(C2CN(c3cc(C)nc(N)n3)CCO2)nc1 (stereo unspecified) | 20
6 | Cc1ccc([C@@H]2CN(C(=O)c3csc(C)n3)C[C@H]2NC(=O)C2CC2)cc1 | -12.3
7 | Cc1ccc(C(=O)NCc2ccnc(C3CCCOC3)n2)s1 (stereo unspecified) | 10.5
8 | CCCC(C)N(C)Cc1nnc(-c2ccco2)o1 (stereo unspecified) | 1.45
9 | CC(C)C(Sc1nccn1C1CC1)C(=O)NCc1cccnc1 (stereo unspecified) | 16
10 | Cn1cc2c(n1)C(CNCC1CCOCC1)OCC2 (stereo unspecified) | 4.92
11 | Cc1cc(C)nc(CN(C)C(=O)C(c2cccnc2)N2CCCC2)c1 (stereo unspecified) | -9.19
12 | COCC1CN(C(=O)c2cccc(C)n2)Cc2ncnn2C1 (stereo unspecified) | 17.7
13 | O=C(C1CCCO1)N1CCc2nnc(Cn3cccc3)n2CC1 (stereo unspecified) | -7.61
14 | Cn1nc2c(cc1=O)CN(CC1CCCCO1)CC2 (stereo unspecified) | -2.64
15 | Cc1ccn2ncc(C(=O)N3CCCC(n4ccnc4C)C3)c2n1 (stereo unspecified) | -2.96
16 | O=C(N1CCOCC1)[C@@]12CCO[C@@H]1CCN(C1CCC1)C2 | 46
17 | NC(=O)c1cnn2c1NCC(CNC1(c3ccccc3)CCC1)C2 (stereo unspecified) | -9.04
18 | Cc1nn(C)cc1CN1CCCC1c1cccc(Nc2nccs2)n1 (stereo unspecified) | 35.9
19 | Cc1nc(COC[C@@H]2CC[C@H]3NCC[C@H]3O2)cs1 | 38.8
20 | Cc1ccc(N2CCCC(NCc3ccc(C)s3)C2)nn1 (stereo unspecified) | 3.59
21 | Cc1cc(C)n(CCC2CC(=O)Nc3cc4[nH]ncc4cc32)n1 (stereo unspecified) | -6.11
22 | Cc1ccc(CNc2cc(N3CCCC3CO)ncn2)s1 (stereo unspecified) | -0.592
23 | CN(Cc1cc(C(C)(C)C)n[nH]1)C(=O)CCC(=O)NC1CCCC1 | -9.2
24 | CCOc1ncccc1CNC(=O)N1CCCC1c1ccncc1 (stereo unspecified) | -8.99

Row | Structure (SMILES) | cytotoxicity at 70.5 h [%]
25 | CCN(c1ccc(C(=O)N2CCCC2c2cnn(C)c2)cn1)C(C)C (stereo unspecified) | 16.2
26 | O=C(NCCc1cc(N2CCOCC2)nc(NC2CC2)n1)C1CCCO1 (stereo unspecified) | -6.3
27 | CC(C)(C)n1nc(C(=O)NCC2(C(N)=O)CCOCC2)cc1C1CC1 | -22.5
28 | Cc1cnn(CC2CCCN2C(=O)c2n[nH]c3ccccc23)c1 (stereo unspecified) | -6.9
29 | NC(=O)N1CCCCCC1C1CCN(c2nccc(C(F)(F)F)n2)CC1 (stereo unspecified) | -13.9
30 | COCC1CN(c2ccncn2)Cc2cnn(CC3CCCC3)c21 (stereo unspecified) | -11.3
31 | Cc1nc(C)n(C2CCCN(C(=O)CCc3cscn3)C2)n1 (stereo unspecified) | 37
32 | COc1c(C2CCCN2Cc2cccc(C(N)=O)c2)c(C)nn1C (stereo unspecified) | -2.05
33 | Cn1cccc1C(=O)N[C@@H]1CN(Cc2ccsc2)[C@@H]2COC[C@@H]21 | -10.2
34 | CCn1ccc(C(=O)N(C)Cc2cnn(-c3cccc(OC)c3)c2)n1 | -11.2
35 | O=C(c1n[nH]c2c1CCN(Cc1nccs1)C2)N1CCOCC1 | 4.7
36 | Cc1ccc(O)c(CN(CCCn2ccnc2)Cc2ccc(C)s2)c1 | 0.701
37 | Cc1nn(C)c(N(C)C)c1CNC1CCOc2ccccc21 (stereo unspecified) | 1.15
38 | Cc1cc(C)cc(C(=O)NCCCC2(C3OCCO3)CCOCC2)c1 | 1.06
39 | OCCN(Cc1ccno1)Cc1cc(Br)ccc1F | -14.1
40 | Cc1cc(Br)oc1C(=O)N1CCCN(CC(N)=O)CC1 | -7.35
41 | O=C(C1SCCc2sccc21)N1CCN(C2CC2)C(=O)C1 (stereo unspecified) | -5.13
42 | COCc1noc(CCNc2nc(CC3CC3)nc3c2CCNCC3)n1 | 8.9
43 | Cc1cc(=O)[nH]c(=O)n1COCc1ccccc1 | -18.6
44 | CN(Cc1ccc(C2CC(=O)Nc3n[nH]cc32)o1)S(C)(=O)=O (stereo unspecified) | 9.86
45 | COCC1CC2(CCN(C(=O)c3cnc4ccccc4c3)CC2)CO1 (stereo unspecified) | -0.655
46 | CCc1cc(N2CC(N3CCCCC3C)C2)n2nccc2n1 (stereo unspecified) | 6.74
47 | COc1ccc(CCN2CCC(N3CCN(C)C3=O)CC2)cc1 | -8.36
48 | COCC1CN(C(=O)c2ccco2)Cc2cn(C)nc21 (stereo unspecified) | 3.61

Row | Structure (SMILES) | cytotoxicity at 70.5 h [%]
49 | COc1ccc(NS(=O)(=O)CC2=NC(=O)n3cccc3C2=O)cc1Cl | -8.91
50 | Cc1cccc(N2CCCC3(C2)CN(c2nncs2)CCO3)c1 (stereo unspecified) | 16.1
51 | Cc1n[nH]c(C)c1CCC(=O)N1CCC(O)(CN2CCOCC2)C1 (stereo unspecified) | 15.2
52 | CC/C=C(/C)C(=O)NCc1ccnc(OC)c1 | -8.93
53 | O=C(OCc1ccccc1)C1CCCN1Cc1nc(C2CC2)no1 (stereo unspecified) | -17.4
54 | c1cnc(-c2noc(C3CN(Cc4ccc5c(c4)CCO5)C3)n2)nc1 | -2.95
55 | CC(C)(C)c1cc(NC(=O)NCCc2nnc3n2CCC3)c(C#N)s1 | 8.88
56 | CC(c1cccc(S(N)(=O)=O)c1)N(C)CCOC(C)(C)C (stereo unspecified) | -2.34
57 | Cc1n[nH]c(=O)c(C(=O)N2CCN(CCc3cccs3)CC2)c1C | -2.36
58 | CSCc1noc(CN2CCCCC2CCc2ccc(O)cc2)n1 (stereo unspecified) | -2.26
59 | CCN(CC)C(=O)c1cc(Br)cc(S(=O)(=O)N2CCOCC2)c1F | -2.06
60 | CCCc1nc(C)c(C(=O)NCCN2CCN(CC)CC2)s1 | -5.5
61 | COC(=O)c1ccc(N(C)C2CCC2)nn1 | -5.28
62 | CCN(Cc1ccoc1)C(=O)c1ccc(C)c(S(N)(=O)=O)c1 | -10.2
63 | O=C(Cc1ccc2c(c1)OCO2)N1CCCN(c2ccccc2)CC1 | -4.44
64 | Cc1nc(C)n(CC2CCCN2Cc2cccc3c2OCCO3)n1 (stereo unspecified) | -5.55
65 | Cc1cc(C)n(CC2CCCCN2CCCS(=O)(=O)N(C)C)n1 (stereo unspecified) | 1.93
66 | COc1ccc(NC(=O)CNc2ccc(Br)cc2F)cc1 | -1.21
67 | Cc1csc(C2CCCN(C(=O)c3c(C)nn4cccnc34)C2)n1 (stereo unspecified) | -4.25
68 | CC1CCCN(CCNC(=O)c2ccn(-c3cccc(F)c3)n2)C1 (stereo unspecified) | 1.27
69 | CC(O)c1cn(Cc2ccc(F)cc2)nn1 (stereo unspecified) | -4.74
70 | O=C(NCCc1ccsc1)c1ccoc1 | 5.67
71 | COc1ccc2[nH]nc(CN3CCC(C(C)N4CCCC4)CC3)c2c1 (stereo unspecified) | -1.99
72 | COC(=O)NCCC(=O)NC(C)Cc1cccc(Br)c1 (stereo unspecified) | 2.65

Row | Structure (SMILES) | cytotoxicity at 70.5 h [%]
73 | O=c1c2cnc(N3CCCCC3)nc2ccn1Cc1ccco1 | -7.45
74 | c1ccc(Cn2cccn2)c(CN2CCC3(CCCNC3)C2)c1 (stereo unspecified) | 0.428
75 | CO[C@@H]1CCN(Cc2cnn(C)c2)[C@@H]2CN(Cc3cccnc3)C[C@@H]21 | -9.6
76 | Cc1noc(C)c1CN(C)C(=O)c1ccc(C(N)=O)nc1 | -5.9
77 | CN1CCN([C@@H]2CCN(CC3CCOC3)[C@H]2Cc2cnn(C)c2)CC1 (stereo partly specified) | -13
78 | CCOc1cccc(CNc2ccccc2OC)c1O | -8.56
79 | CC(C)(O)CN1CCN(C(=O)c2cccc3cccnc23)CC1 | -2.87
80 | CO[C@H]1CC[C@H]2[C@H]1OCCN2CCOCc1ccccc1 | -11.7
81 | O=C1CCC2(CCNCC2)CN1CCCOc1cccnc1 | -1.48
82 | CNC(=O)c1cccnc1NCc1ccc(Cn2ccnc2)cc1 | 34.2
83 | O=C(CCOc1ccc(Br)cc1)N1CCN(c2cnccn2)CC1 | 24.8
84 | COc1ccccc1NCc1cscn1 | -1.66
85 | CNC(=O)NC(=O)CN1CCCC(Cc2ccccc2OC)C1 (stereo unspecified) | -6.62
86 | COC(=O)C(NC(=O)C(C)C)c1cc(F)ccc1F (stereo unspecified) | -20.7
87 | COc1ccc2nc(C3CC3)cc(C(=O)NCC(=O)N(C)C)c2c1 | -2.45
88 | CC(C)(C)NC(=O)CN1CCN(C(=O)Nc2ccc(F)cc2F)CC1 | 9.46
89 | Cc1noc(C)c1CN1CCc2ncnc(-c3cccnc3)c2CC1 | -0.64
90 | Cc1cnc(C(=O)N2C[C@@H]3[C@@H](C2)OCC(=O)N3CC2CCCC2)cn1 | 15.5
91 | CN(C)C(=O)C1CN(Cc2c[nH]cn2)CCN(C2CCOCC2)C1 (stereo unspecified) | -0.471
92 | CN(C)CC1CSCCCN1S(=O)(=O)Cc1cccc(F)c1 (stereo unspecified) | -3.38
93 | COc1ccc(N2Cc3n[nH]c(=O)n3C2=O)cc1 | -3.14
94 | CC(C)N1CC[C@H](c2nnc(Cc3c[nH]c4ccccc34)o2)C1 | -4.41
95 | COc1c(C2CCCN2C(=O)c2cccn2C)c(C)nn1C (stereo unspecified) | 13.8
96 | Cc1nn(Cc2ccccc2)c(C)c1CNC1CCc2ncnn2C1 (stereo unspecified) | 0.852

Row | Structure (SMILES) | cytotoxicity at 70.5 h [%]
97 | Cc1cc(CNC2(c3ccccc3)CCCCC2)no1 | -4.77
98 | CN(C)C(=O)NC1COC2(CCN(Cc3ccccc3)CC2)C1 (stereo unspecified) | 27.7
99 | Cc1occc1C(=O)N1CCCC(c2nncn2C)C1 (stereo unspecified) | -6.07
100 | COCCc1ncc(CNC2(c3ccc(Cl)cc3)CC2)cn1 | 0.0528
101 | O=C1COC2(CCN(Cc3cccs3)CC2)CN1c1ccccc1 | -4.47
102 | O=C(COc1ccccc1)N1CCCC1c1ccc[nH]1 (stereo unspecified) | -17.9
103 | CCOc1cccc(COC(=O)c2cc(C)on2)n1 | 1.07
104 | Cc1cc(C)c(CNC(=O)NCCCNc2ccccn2)c(=O)[nH]1 | 6.35
105 | CC(C)c1cc(C(=O)O)nc2[nH]c(=O)[nH]c(=O)c12 | -15.1
106 | CCNC(=O)NC(=O)CNc1cccc(C(=O)c2ccccc2)c1 | -12.7
107 | COc1ccc(CN2CCCN(c3cc(C(N)=O)ccn3)CC2)cc1 | 9.62
108 | CN(Cc1cnn(C)c1)C(=O)C1COc2ccccc2C1 (stereo unspecified) | -5.03
109 | CCc1c(C)[nH]c(C2(N)CCCC2)nc1=O | -2.07
110 | CCOc1ncccc1NC(=O)N1CCCC1c1cc(C)no1 (stereo unspecified) | -8.02
111 | O=C(CCc1ccsc1)Nc1cccnc1N1CCCC1 | -6.9
112 | Cc1cc(=O)n(C)cc1NC(=O)Cc1cccc(F)c1 | -2.92
113 | Cc1nn2c(N3CCC(C#N)CC3)cc(-c3ccccc3)nc2c1C | 1.27
114 | Cc1nc(CNCc2ccc(N3CCN(C)CC3)nc2)cs1 | 16.7
115 | O=C(Cc1ccccc1)N1CC[C@H]2[C@@H]1CCC(=O)N2Cc1ccncc1 | 1.86
116 | CCS(=O)(=O)c1ccc2oc([C@H]3CCN(Cc4ccncc4)C3)nc2c1 | 6.63
